Assay results published in patent US6936600B2, “Sorbitol dehrydrogenase inhibitors” (Pfizer Inc, priority 1999, dated 2005).

Row | Structure (SMILES) | melting point
1 | C[C@@H]1CN(c2nc3ncccc3o2)C[C@H](C)N1c1ccnc([C@@H](C)O)n1 [Example 31, 1R-[4-(2R,6S-Dimethyl-4-oxazolo-[4,5-b]pyridin-2-yl-piperazin-1-yl)-pyrimidin-2-yl]-ethanol] | 231 to 233 °C
2 | Cc1cc(C)nc(N2C[C@@H](C)N(c3ccnc([C@@H](C)O)n3)[C@@H](C)C2)n1 [Example 27, 1R-{4-[4-(4,6-Dimethyl-pyrimidin-2-yl)-2R,6S-dimethyl-piperazin-1-yl]-pyrimidin-2-yl}-ethanol] | 150.5 to 152 °C
3 | C[C@@H](O)c1nccc(N2CCN(S(=O)(=O)/C=C/c3ccccc3)CC2)n1 [Example 111, (E)-1-R{4-[4-(2-phenyl-ethenesulfonyl)-piperazin-1-yl]-pyrimidin-2-yl}-ethanol] | 68 to 70 °C
4 | C[C@@H](O)c1nccc(N2CCN(c3ccnc(CO)n3)[C@@H](C)C2)n1 [Example 37, 1R-{4-[4-(2-Hydroxymethyl-pyrimidin-4-yl)-3S-methyl-piperazin-1-yl]-pyrimidin-2-yl}-ethanol] | 178 to 181 °C
5 | C[C@@H]1CN(c2ccnc([C@@H](C)O)n2)C[C@H](C)N1C(=O)CSc1ncccn1 [Example 160, 1-{4-[2-(1R-Hydroxy-ethyl)-pyrimidin-4-yl]-2R,6S-dimethyl-piperazin-1-yl}-2-(pyrimidin-2-ylsulfanyl)-ethanone] | 60 to 70 °C
6 | C[C@@H]1CN(c2ccnc([C@@H](C)O)n2)C[C@H](C)N1C(=O)C1CCCCC1 [Example 131, Cyclohexyl-{4-[2-(1R-hydroxy-ethyl)-pyrimidin-4-yl]-2R,6S-dimethyl-piperazin-1-yl}-methanone] | 174 to 175 °C
7 | Cc1nc2c(c(Sc3ccccc3)n1)CCN(c1ccnc([C@@H](C)O)n1)C2 [Example 98] | 103 to 105 °C
8 | C[C@@H]1CN(c2nccc(-n3cncn3)n2)C[C@H](C)N1c1ccnc([C@@H](C)O)n1 [Example 196, 1R-{4-[2R,6S-Dimethyl-4-(4-[1,2,4]triazol-1-yl-pyrimidin-2-yl)-piperazin-1-yl]-pyrimidin-2-yl}-ethanol] | 181 to 182 °C
9 | Cc1nc2c(c(-c3ccccc3)n1)CCN(c1ccnc([C@@H](C)O)n1)C2 [Example 86, (R)-1-[4-(2-Methyl-4-phenyl-5,8-dihydro-6H-pyrido[3,4-d]pyrimidin-7-yl)-pyrimidin-2-yl]ethanol] | 114 to 116 °C
10 | C[C@@H](O)c1nccc(N2CCC(=C(c3ccccc3)c3ccccc3)CC2)n1 [Example 180] | 108 to 109 °C

Continued, values first:

Row | melting point | Structure (SMILES)
11 | 130 to 132 °C | C[C@@H](O)c1nccc(N2CCc3nc(C(F)(F)F)ncc3C2)n1 [Example 255]
12 | 161 to 164 °C | C[C@@H](O)c1nccc(N2CCn3c(nnc3-c3ccccc3)C2)n1 [Example 260]
13 | 60 to 70 °C | C[C@@H]1CN(c2ccnc(N3CCN(C)CC3)n2)C[C@H](C)N1c1ccnc([C@@H](C)O)n1 [Example 202, 1R-(4-{2R,6S-Dimethyl-4-[2-(4-methyl-piperazin-1-yl)-pyrimidin-4-yl]-piperazin-1-yl}-pyrimidin-2-yl)-ethanol]
14 | 120.5 to 122 °C | C[C@@H](O)c1nccc(N2CCc3ccc(S(=O)(=O)N(C)C)cc3C2)n1 [Example 247, (R)-2-[2-(1-Hydroxy-ethyl)-pyrimidin-4-yl]-1,2,3,4-tetrahydro-isoquinoline-7-sulfonic acid dimethylamide]
15 | 133 to 134 °C | C[C@@H]1CN(c2ncnc(-c3ccccc3)n2)C[C@H](C)N1c1ccnc([C@@H](C)O)n1 [Example 215]
16 | 170 to 171 °C | COc1nc(CO)nc(N2[C@H](C)CN(c3ccnc([C@@H](C)O)n3)C[C@@H]2C)n1 [Example 236, 1R-{4-[4-(4-Hydroxymethyl-6-methoxy-[1,3,5]triazin-2-yl)-3R,5S-dimethyl-piperazin-1-yl]-pyrimidin-2-yl}-ethanol]
17 | 79 to 82 °C | C[C@@H](O)c1nccc(N2CCc3ncncc3C2)n1 [Example 253]
